# Columns and labels:
# [1] = system: isolated soleus muscle from rats; test: amylin antagonist assay: incorporation of radiolabelled glucose into glycogen in isolated soleus muscle; type: cell-based, rat
# Method: Insulin was obtained as Humulin-R, 100 U/mL, recombinant human insulin (Eli Lilly, Indianapolis, Ind.). […] An antagonist assay was performed in vitro using the isolated soleus muscle from rats.
# The right and left soleus muscles of 4-hour fasted rats were removed immediately after decapitation of the animals, divided in half and temporarily placed in physiological saline. Muscles were assigned to different treatment groups so that the 4 muscle pieces from each animal were evenly distributed among the 9 flasks representing the different assay conditions. […] Pharmacologically active agents were added to the 10mL of medium to result in the above stated concentrations and mixtures. […]
# Dissolved glycogen was precipitated out by addition of 3 mL absolute ethanol and cooling to -20° C. overnight. […] The remaining glycogen was redissolved in water and scintillation fluid and counted for ^14 C.
# From a knowledge of the specific activity of ^14 C-glucose in the 5.5 mM glucose of the incubation medium, and the total ^14 C counts remaining in the glycogen extracted from each muscle, it was possible to determine the net rate of glycogen synthesis over the final 60 minute incubation period. This was normalized per mass of muscle and expressed as μmoles of glucosyl units incorporated into glycogen per hour per gram of muscle. […]
# isolated adipocytes [2] = test: formation of CO2 or triacylglycerol from glucose in isolated adipocytes; type: cell-based
# normal rats = test: intravenous amylin bolus in normal rats (hyperglycemia, respiratory quotient); type: in vivo, rat
# Excerpt: The hyperglycemia is partly accounted for by an increase in hepatic (endogenous) glucose output and partly by an increased impediment in peripheral glucose disposal.
# [3] = system: isolated incubated skeletal muscles of the rat; test: effect of amylin on glucose uptake and glycogen synthesis in isolated incubated skeletal muscle; type: cell-based
# isolated adipocytes [4] = details: Cooper et al. 1988; cited from earlier work
# [5] = system: spontaneously hypertensive (SHR) rats; details: continuous intravenous infusion of purified rat relaxin; single reported study; cited from earlier work
# anaesthetised rats = test: hyperinsulinemic euglycemic glucose clamp in rats infused with insulin and CGRP; details: for steady-state glucose infusion rate necessary to maintain euglycemia: FIG. 2A: insulin 1.8 mU/kg/min for 210 min, CGRP 0.02 ug/kg/min added from 80-150 min; for hepatic glucose output (HGO) / suppression of hepatic glucose output (HGO): FIG. 2B clamp, insulin alone or insulin in the presence of CGRP; for suppression of hepatic glucose output (HGO): from basal 11.2±0.7 mg/kg/min; for mean steady-state glucose infusion rate: FIG. 2B: CGRP 0.02 ug/kg/min plus insulin 1.8 mU/kg/min for 75 min, then insulin alone for 130 min; for mean steady-state plasma insulin level: insulin 1.8 mU/kg/min
# Excerpt: In these experiments, the overall glucose disposal rate (GDR) equals the glucose rate plus hepatic glucose output (HGO).
# In addition to stimulation of peripheral glucose disposal, another important in vivo glucoregulatory effect of insulin is to inhibit HGO.
# BC3H-1 myocytes = test: insulin-stimulated glucose uptake in cultured BC3H-1 myocytes; type: cell-based; details: 10^-8 M CGRP, all insulin concentrations, FIG. 4
# Method: (§1) In vitro studies in isolated adipocytes and cultured BC3H-1 myocytes were also conducted. […] Since 80-90% of in vivo insulin-stimulated glucose disposal represents skeletal muscle glucose uptake, an in vitro muscle cell system was also examined.
# isolated adipocytes [6] = test: 2-deoxyglucose uptake in isolated adipocytes; type: cell-based
# Method: as §1
# [7] = FIG. 2B protocol, last 20 min of each period
substance,measurement,setting,value
amylin,decrease of insulin-stimulated rate of glycogen synthesis,"[1]; 20 nM amylin, 1000 μU/mL insulin",approximately 83%
same,effect on basal or insulin-stimulated rates of formation of CO2 or triacyglycerol,isolated adipocytes [2],no effect
same,persistence of hyperglycemia,normal rats; 100 μg intravenous bolus,persists for several hours
same,time to hyperglycemia at diabetic levels,normal rats; 100 μg intravenous bolus,15 to 30 min
same,blood glucose level reached (hyperglycemia),"normal rats; 100 μg intravenous bolus, eight normal rats",around 200 mg/dL
same,change in respiratory quotient (RQ),"normal rats; during somatostatin infusion (no endogenous insulin release), fasted animal",no change in RQ
same,change in respiratory quotient (RQ),"normal rats; somatostatin absent, insulin allowed to increase",increase in respiratory quotient
same,reduction in the basal rate of glycogen synthesis,[3]; basal insulin concentration 1 uU/ml,30%
same,response of amylin-treated muscles to insulin,[3]; insulin concentration giving half-maximal stimulation in non amylin-treated muscles,no response to insulin
same,insulin concentration needed to overcome the effect of amylin in muscle,[3]; supra-physiological level,1000 uU/ml
same,effect on basal or insulin-stimulated incorporation of glucose into CO2 or triglyceride,isolated adipocytes [4],does not influence
relaxin,effect on systolic blood pressure,[5],highly effective in reducing systolic blood pressure
insulin,steady-state glucose infusion rate necessary to maintain euglycemia,anaesthetised rats,26.7 ± 0.1 mg/kg/min
same,hepatic glucose output (HGO),anaesthetised rats,3.9 ± 2.7 mg/kg/min
same,suppression of hepatic glucose output (HGO),anaesthetised rats,69%
same,glucose disposal rate (GDR),"anaesthetised rats; FIG. 2B protocol, 3H-glucose, last 20 min of each period, basal GDR 11.2±0.7",35.6 ± 1.3 mg/kg/min
same,rise of GDR above basal,anaesthetised rats; [7],24 ± 0.9 mg/kg/min
same,mean steady-state glucose infusion rate,anaesthetised rats,32.3 ± 0.3 mg/kg/min
same,mean steady-state plasma insulin level,anaesthetised rats; absence of the CGRP infusion,695±105 uU/ml
same,mean steady-state plasma insulin level,anaesthetised rats; presence of the CGRP infusion,591±86 uU/ml
same,increase in rate of glycogen synthesis,[1]; 1000 μU/mL insulin added to media,3.7 fold
calcitonin gene-related peptide [CGRP],inhibition of insulin-stimulated GDR,anaesthetised rats; CGRP infusion rate 0.005 ug/kg/min,no inhibition
same,inhibition of insulin-stimulated GDR,anaesthetised rats; CGRP infusion rate 0.01 ug/kg/min,intermediate effect
same,steady-state glucose infusion rate necessary to maintain euglycemia,anaesthetised rats,18.0 ± 0.1 mg/kg/min
same,hepatic glucose output (HGO),anaesthetised rats,8.0 mg/kg/min
same,suppression of hepatic glucose output (HGO),anaesthetised rats,29%
same,rise of GDR above basal,anaesthetised rats; [7],7.4 ± 1.6 mg/kg/min
same,mean steady-state glucose infusion rate,anaesthetised rats,9.9 ± 0.3 mg/kg/min
same,effect on insulin-stimulated glucose uptake,BC3H-1 myocytes,significantly inhibited
same,effect on basal or insulin-stimulated 2-deoxyglucose uptake,isolated adipocytes [6],no effect

# Reference: patent publication US5280014A, “Treatment of obesity and essential hypertension and related disorders” (Amylin Pharmaceuticals, Inc., priority 1991, dated 1994)
